Test results published in patent publication US20260199485A1, “RNA DEGRADERS AND USES THEREOF” (Arrakis Therapeutics, Inc., priority 2022, published 2026).
{DBCO-TEG} = DBCO-TEG group for click conjugation of the bait; l = locked nucleic acid (LNA); d = 2'-deoxy (DNA)

Assays:
STAT3 mRNA = experiment: Endogenous STAT3 mRNA expression assay (ddPCR) in H1299 cells expressing tagged CNOT7; assay type: cell-based; conditions: 200 nM ASO-bait, 24 hours, with CNOT7, relative to non-targeting ASO-bait and GFP control
Method: For the endogenous mRNA expression assay, H1299 cells were seeded in a 12-well plate the day before transfection. On the following day, the cells were transfected with the plasmid expressing tagged CNOT7 and incubated for 24 hours. The following day, cells were transfected with 200 nM of the targeting or non-targeting ASO-bait molecules and incubated for 24 hours. In addition, cells were also transfected with a known STAT3 silencing ASO as a positive control for STAT3 mRNA knockdown. Samples were directly lysed in-well for RNA purification using the Promega Maxwell Automated RNA Extractor, followed by single-strand cDNA synthesis. The resulting cDNA was serially diluted at 1:100, which was used in the ddPCR reaction with primers designed to STAT3 and housekeeping genes (CLTC and TBP), the sequences of which are shown below. Data were analyzed by normalizing STAT3 relative to the geomean of TBP and CLTC. All transfections were performed using Lipofectamine 3000 (Invitrogen). […] Thus, the bifunctional molecule is capable of accelerating the degradation of endogenously expressed RNA.

[1] = system: Renilla STAT3 3′UTR reporter; experiment: Cellular dual luciferase reporter assay (Renilla STAT3 3′UTR reporter, tagged CNOT7) in H1299 cells; assay type: cell-based; conditions: 10 nM, 30 nM, 100 nM ASO-bait, 24 hours, with CNOT7, relative to non-targeting ASO-bait
Description: Reporter constructs for cellular assays are depicted in FIG. 12. A luciferase reporter construct was designed to the 3′ UTR of STAT3 fused to Renilla luciferase, which contains the PEST and CP1 destabilizing domains. A second luciferase reporter construct was designed using the 3′UTR of HBB fused to Firefly luciferase, which contains the PEST and CP1 destabilizing domains. The reporter design for both constructs was previously described in Luo E C, et al. Nat Struct Mol Biol. 2020; 27(10):989-1000.
An antisense oligo was conjugated to the bait molecule AP1867, which binds FKPB12 via click-chemistry to generate a heterobifunctional molecule (ASO-bait). The bait molecule was chemically modified to contain an azide to allow for click chemistry. […]
A model system to interrogate the ability of a bifunctional RNA binder—CNOT7 binder is depicted in FIG. 13. A parallel approach utilizing a luciferase readout together with mRNA expression analysis was employed to assess the bifunctional molecule's capability to recruit CNOT7 to target mRNA and mediate mRNA degradation. […] A parallel plate was assessed for cell viability using CellTiter Glo (Promega). Data was analyzed by normalizing reporter signal relative to normalizer signal, and this ratio was then normalized to GFP. […]

## targeting ASO-bait: "An antisense oligo was conjugated to the bait molecule AP1867"; oligonucleotide binds "a sequence in the 3′UTR of STAT3" (SEQ ID NO:3) (antisense GAAGTACACATTGG; sugars from the 5' end dldldldldldldl, all phosphorothioate, 5' {DBCO-TEG}, methylation of C not given here; Bait AP1867 attached by click chemistry to the 5' DBCO-TEG)
STAT3 mRNA
  STAT3 expression (mRNA, ddPCR, normalized to TBP and CLTC): reduction in STAT3 expression
[1]
  reporter signal (Renilla STAT3 3′UTR normalized to Firefly HBB and GFP): reduction in reporter signal
